The test system of series [1] is nNOS. Briefly: Western blot of nNOS knockdown in cultured nNOS shRNA-transfected U87 cells. The format is cell-based, human. The procedure: U87MG (American Type Culture Collection HTB-14) and GL261 (generous gift from Dr. G. Yancey Gillespie at University of Alabama) tumor cells were cultured in Dulbecco's Modified Eagle's Medium with 10% fetal bovine serum at 37° C. in a humidified 5% CO2 incubator. The following short-hairpin RNAs (shRNAs) for nNOS were designed using a commercial service program for small interfering RNA (siRNA) target finder (http://www.ambion.com/techlib/misc/siRNA_finder.html): nNOS-shRNA58, CAAAGAGATCGACACCATC (sense), […] (antisense); nNOSshRNA97, CACGCATGTCTGGAAAGGC (sense), […](antisense); nNOS-shRNA150, GGTCTATCCAATGTCCACA (sense), […] (antisense). The DNA oligonucleotides consist of a 19-nucleotide sense siRNA sequence linked to its reverse complementary antisense siRNA sequence by a short spacer (TTCAAGAGA).
Each DNA oligonucleotide was prepared with nucleotide overhangs with BamHI and HindIII restriction sites added to the 5′ and 3′ end of the DNA oligonucleotides and subcloned into the pSilencer 3.1 H-1-hygro (Ambion) that allows transcription of the shRNA. These expression vectors were stably transfected into U87MG cells using LipofectAMINE 2000 (Invitrogen) following the manufacturer's instruction.
The stably transfected cells were selected with 80 μg/ml of hygromycin B. The expression of nNOS protein in U87 tumor cells and tissues was determined by'Western blot analysis. […]
Equal amounts of 60 micrograms of protein per sample were separated on 7.5% SDS polyacrylamide gels, transferred onto polyvinylidene fluoride membrane (Millipore), incubated with primary antibodies followed by secondary antibodies (the same antibodies used in immunohistochemistry studies. See Immunohistochemistry methods below), and detected using enhanced chemiluminescence (GE Healthcare) by exposure on autoradiography films (Kodak) (Xu, L., et al. 2005 Cancer Res. 65, 5711-5719; Canneliet, P., et al. 1998 Nature 394, 485-490; Xu, L., et al. 2002 Journal of Biological Chemistry 277, 11368-11374 (2002); and Xu, L., et al. 2004 Clinical Cancer Research 10, 701-707). […]

For series [2], the system named is nNOS. Briefly: Western blot of nNOS knockdown in U87 tumors grown in cranial windows. The format is in vivo. The note with it: U87 tumors in cranial windows in Rag-1-/- mice. The procedure:
The stably transfected cells were selected with 80 μg/ml of hygromycin B. The expression of nNOS protein in U87 tumor cells and tissues was determined by'Western blot analysis. Cultured U87MG cells washed with PBS and U87MG tumors homogenized by a tissue grinder were solubilized in 40 mM Tris-HCl, pH 6.8, 2% SDS, 10% glycerol, 1% β-mercaptoethanol, 0.01% bromophenol blue with one Complete Mini Protease Inhibitor Cocktail tablet (Roche Diagnostics) per 50 ml buffer.
Equal amounts of 60 micrograms of protein per sample were separated on 7.5% SDS polyacrylamide gels, transferred onto polyvinylidene fluoride membrane (Millipore), incubated with primary antibodies followed by secondary antibodies (the same antibodies used in immunohistochemistry studies. See Immunohistochemistry methods below), and detected using enhanced chemiluminescence (GE Healthcare) by exposure on autoradiography films (Kodak) (Xu, L., et al. 2005 Cancer Res. 65, 5711-5719; Canneliet, P., et al. 1998 Nature 394, 485-490; Xu, L., et al. 2002 Journal of Biological Chemistry 277, 11368-11374 (2002); and Xu, L., et al. 2004 Clinical Cancer Research 10, 701-707).
(§1) Recombination activating gene 1 (Rag-1^−/−) mice backcrossed to C57BL/6 background or severe combined immunodeficiency (SCID) mice, bred and maintained in an gnotobiotic animal facility, were used. To obtain source tumor tissue, U87 tumor cells in culture (1×10^6 cells) were injected subcutaneously into Rag-1^−/− or SCID mice matching the recipient mice. When the tumor reached about 8 mm in diameter, it was excised after euthanasia and a small piece (about 1 mm^3) of viable tumor tissue was implanted into a cranial window or subcutaneously into the calf area of the right hindlegs of the mice as previously described (Kashiwagi, S., et al. 2005 J. Clin. Invest. 115, 1816-1827; Kozin, S. V., et al. 2001 Cancer Research 61, 39-44). […]
U87 with nNOS shRNA (shRNA58, shRNA97, and shRNA150) were grown in cranial windows in Rag-1^−/− mice. Expression of nNOS in these tumors was determined by Western blot analysis. […]

The subject of series [3] is U87 gliomas. Briefly: NO distribution in U87 gliomas by DAF-2T fluorescence (MPLSM). It is filed as in vivo, mice. To be noted: animals treated with L-NMMA compared to D-NMMA. The procedure:
FIGS. 3A-B show microfluorographs depicting NO distribution in U87 gliomas grown in the cranial window in Rag-1^−/−. NO production was visualized by means of DAF-2T fluorescence 0, 20, 40 and 60 min after DAF-2 (0.5 mg/body) injection. Left column, micro-angiography with tetramethylrhodamine-dextran (2000 kDa). Middle column, representative DAF-2T microfluorography captured 60 min after the loading of DAF-2 in tumors. Right column, pseudocolor representation of DAF-2T microfluorographs. […] Bars indicate 100 μm. (A) NO distribution in parental U87MG (top row) or nNOS shRNA58-transfected-U87 (bottom row) tumors. […]
(§2) Vascular parameters such as functional vessel density (the total length of perfused microvessels per unit area) and vessel diameter were analyzed by tracing each vessel segment using NIH image 1.63 as described elsewhere (Kashiwagi, S., et al. 2005 J. Clin. Invest. 115, 1816-1827). Tissue distribution of NO was visualized using MPLSM and the NO-sensitive fluorescence probe 4,5-diaminofluorescein (DAF-2) (0.5 mg i.v. Daiichi Pure Chemicals Co. Ltd) as described previously (Kashiwagi, S., et al. 2005 J. Clin. Invest. 115, 1816-1827). NO converts DAF-2 to 4,5-diaminofluorescein triazolium (DAF-2T) increasing fluorescence by a factor of 200. The DAF-2 associated fluorescence images were captured 60 min after i.v. injection. […]

Series [4] deals with U87MG tumors. Nature of the series: Vessel morphology of U87 tumors in the cranial window by intravital microscopy. The format is in vivo, mice. To be noted: L-NMMA 7 mg/day by osmotic pump vs D-NMMA, SCID mice. The procedure: as §1, with “39-44). All animal procedures were carried oat following the Public Health Service Policy on Humane Care of Laboratory Animals and approved by the Institutional Animal Care and Use Committee of Massachusetts General Hospital.” for “39-44).”
Angiogenesis and vessel morphology were determined in U87 and GL261 tumors grown in the cranial windows by intravital microscopy using multiphoton laserscanning microscopy (MPLSM) or single photon fluorescence microscopy (SPFM) when tumors reached about 7 mm^2. […] Using MPLSM, five locations with 200-μm thick imaging stack were recorded for each tumor. […]
as §2

The subject of series [5] is 10T1/2 cells. Nature of the series: Transwell migration of 10T1/2 cells toward HUVECs. The note with it: Sildenafil+L-NMMA. It is filed as cell-based. The procedure:
FIGS. 13A-C show the role of the NO-sGC-cGMP pathway in perivascular cell recruitment and migration. (A) In bar graph form, cGMP production in cultured 10T1/2 cells in response to NO donor or PDE5 inhibitor. (B) In bar graph form, the migration of 10T1/2 cells in a transwell assay. 10T1/2 cell migration was assessed using Falcon HTS FluoroBlok inserts with 1 μm pores. GFP-expressing 10T1/2 cells were inoculated in the inserts, and HUVECs were inoculated in the outer well. Percent area of transwell filter covered by migrated 10T1/2 cells was determined. Medium only indicates no HUVECs in the outer well. ODQ, T-1032, Sildenafil, or Sildenafil+L-NMMA were added to the medium. *P<0.05 vs. control (HUVEC). (C) Images for transmigrated GFP-10T1/2 cells at the back side of the Fluoroblock insert after 10 hours with control vs. T-1032 treatment.
FIGS. 14A-B show the effect of PI3K inhibition on transwell migration of 10T1/2 cells toward HUVECs. 10T1/2 cell migration was assessed using Falcon HTS FluoroBlock inserts with 1 μm pores. GFP-expressing 10T1/2 cells were inoculated in the inserts and human umbilical vein endothelial cells (HUVECs) were inoculated in the outer well. (A) Images for transmigrated GFP-10T1/2 cells at the back side of the FluoroBlock insert after 16 hours. Images are 865 μm across. (B) Quantification of 10T1/2 cell transwell migration. Data are expressed as percentage relative to the control (HUVEC) migration of the same experimental batch. Medium represents no HUVECs in the outer well. LS294002 10 μM was added. n=4 each. *p<0.05 as compared to the control (HUVEC).
The effect of sGC inhibitor was next examined on 10T1/2 cell migration. […] Finally, the effect of PDE5 inhibitors on 10T1/2 cell migration was examined. […] L-NMMA abolished induction of 10T1/2 cell migration induced by Sildenafil. (Mann-Whitney U-test).
To elucidate the downstream signaling pathway of NO-dependent perivascular cell recruitment, the effect of PI3K inhibitor […] (10 μM) on the transwell 10T1/2 cell migration toward HUVECs was determined (FIG. 14A-B).

Regarding “shRNA97: short-hairpin RNA for nNOS, CACGCATGTCTGGAAAGGC (sense), GCCTTTCCAGACATGCGTGTT (antisense), in pSilencer 3.1 H-1-hygro”, in series [1], the “Knockdown efficiency of nNOS in vitro” value is recorded as 98%. Further, in series [2], the “Knockdown efficiency of nNOS in vivo” value came out at 67%.
For the compound `CC(=O)O.CNC(=N)NCCC[C@H](N)C(=O)O` [L-NMMA, NG-Monomethyl-L-arginine monoacetate], the “DAF-associated fluorescence (NO production)” value in series [3] is reported as “abolished”. Further, in series [4], the vessel density result is given as “decreased” and the vessel diameter result is “increased”. The “induction of 10T1/2 cell migration induced by Sildenafil” value in series [5] is “abolished”.

Values taken from patent US20130195926A1, “MODULATION OF NITRIC OXIDE SIGNALING TO NORMALIZE TUMOR VASCULATURE” (The General Hospital Corporation, priority 2007, published 2013).
